The results in this text go back to US9051310B2, “Nicotinamide derivative or salt thereof” (FUJIFILM Corporation, priority 2011, dated 2015).

The test system of assay [1] is THP-1 cells (TNFα secretion on human IgG-coated plate). The experiment in a line: TNFα generation assay. Type of assay: cell-based. The settings on record: IFN-γ differentiated THP-1 cells, 7 hours, AlphaLISA, read-out: IC50 of TNFα generation inhibitory activity. The essentials: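 Secreted TNFα was measured by AlphaLISA after 7 h of culture on human IgG-coated wells (coating at 10 μg/ml), with 5×10^4 cells/well. Before plating, the cells had been treated with compound for 30 min at room temperature. The cells were macrophage-like THP-1, produced by a 2-day exposure to 10 ng/ml IFN-γ.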
(Bead proximity is the source of the signal in Alpha formats.)

In assay [2] the test system is THP-1 cells (phagocytosis of opsonized Escherichia coli). The experiment in a line: Antibody-dependent phagocytosis assay. Type of assay: cell-based. To be noted: Homo sapiens; IFNγ differentiated THP-1 cells, opsonized pHrodo Escherichia coli, 3 hours; read-out: IC50 upon phagocytosis inhibition. The method, then: THP-1 cells (2×10^5 cells/ml), which were human monocytoid cells, were cultured in the presence of 10 ng/ml IFNγ for 2 days, and they were induced to differentiate into macrophage-like cells. The differentiation-induced THP-1 cells were recovered, and the cells (5×10^4 cells/well) were then allowed to react with a predetermined concentration of test compound at room temperature for 30 minutes. Thereafter, Escherichia coli (Life Technologies) labeled with a pH-sensitive dye (pHrodo) was subjected to opsonization using an anti-Escherichia coli antibody (Life Technologies). Then, the resultant was added to the THP-1 cells obtained above, followed by incubation at 37° C. for 3 hours. Opsonized Escherichia coli and cell-permeable fluorescent dye (Calcein AM) were simultaneously added thereto, followed by quantitative determination of phagocytosis of opsonized Escherichia coli in viable cells using an IN Cell Analyzer.

The target in assay [3] is T1, glutathione S-transferase (GST)-linked full-length human Syk protein (Homo sapiens, UniProt P43405).
T1 construct: glutathione S-transferase (GST)-linked full-length human Syk protein; purchased Carna Biosciences; host or cells: Baculovirus expression system
Description: Syk enzyme assay. Type of assay: biochemical. To be noted: 0.83 nM Syk, time-resolved fluorescence; read-out: IC50 of Syk-inhibitory activity. The essentials:
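Phosphotyrosine on a biotin-peptide substrate (0.5 μM) was read by time-resolved fluorescence at 615 and 665 nm with Eu-anti-pTyr antibody and APC-streptavidin after 1 h EDTA stop.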

With `CC(C)C[C@@H](Nc1nc(Nc2cncc(-n3cccn3)c2)c(C(N)=O)cc1F)[C@H](C)N` [Example 2-70, 2-((5-(1H-pyrazol-1-yl)pyridin-3-yl)amino)-6-(((2S,3R)-2-amino-5-methylhexan-3-yl)amino)-5-fluoronicotinamide], the IC50 in assay [1] is 130 to 200 nM; in assay [2] it was 1000 to 3000 nM; in assay [3], under 10 nM.
On the same counts, the results for `Cc1ncc(Nc2nc(N[C@H](c3ccc(F)cc3)[C@H](C)N)c(F)cc2C(N)=O)cc1F` [Example 2-272, 6-(((1R,2S)-2-amino-1-(4-fluorophenyl)propyl)amino)-5-fluoro-2-((5-fluoro-6-methylpyridin-3-yl)amino)nicotinamide] are 130 to 200 nM, under 1000 nM and 10 to 50 nM.
For `COCCn1ncc2c(Nc3nc(N[C@@H]4CCOC[C@@H]4N)c(F)cc3C(N)=O)cc(F)cc21` [Example 2-375, 6-(((3R,4R)-3-aminotetrahydro-2H-pyran-4-yl)amino)-5-fluoro-2-((6-fluoro-1-(2-methoxyethyl)-1H-indazol-4-yl)amino)nicotinamide], the IC50 in assay [1] was 65 to 130 nM; in assay [2] it was 1000 to 3000 nM; in assay [3], under 10 nM.
For `CCn1ncc2c(Nc3nc(N[C@@H]4CCOC[C@@H]4N)c(F)cc3C(N)=O)cncc21` [Example 2-317, 6-(((3R,4R)-3-aminotetrahydro-2H-pyran-4-yl)amino)-2-((1-ethyl-1H-pyrazolo[3,4-c]pyridin-4-yl)amino)-5-fluoronicotinamide] the same measures were 65 to 130 nM, 1000 to 3000 nM and under 10 nM.
Take `COc1ncc(Nc2nc(N[C@H](C3CCC3)[C@H](C)N)c(F)cc2C(N)=O)cc1-n1ccnn1` [Example 2-166, 6-(((1R,2S)-2-amino-1-cyclobutylpropyl)amino)-5-fluoro-2-((6-methoxy-5-(1H-1,2,3-triazol-1-yl)pyridin-3-yl)amino)nicotinamide]: the IC50 in assay [2] is 1000 to 3000 nM; in assay [3] it was 10 to 50 nM.
Turning to `Cc1ncc(Nc2nc(N[C@@H]([C@H](C)N)[C@H]3CC3(C)C)c(F)cc2C(N)=O)cc1-n1nccn1` [Example 2-380, 6-(((1R,2S)-2-amino-1-((S)-2,2-dimethylcyclopropyl)propyl)amino)-5-fluoro-2-((6-methyl-5-(2H-1,2,3-triazol-2-yl)pyridin-3-yl)amino)nicotinamide], the results for the IC50 in assay [2] and in assay [3] were 1000 to 3000 nM and under 10 nM, respectively.
On the same counts, the results for `CCOc1ncc(Nc2nc(N[C@H](C3CC3)[C@H](C)N)c(F)cc2C(N)=O)cc1-n1ccnn1` [Example 2-163, 6-(((1R,2S)-2-amino-1-cyclopropylpropyl)amino)-2-((6-ethoxy-5-(1H-1,2,3-triazol-1-yl)pyridin-3-yl)amino)-5-fluoronicotinamide] are 1000 to 3000 nM and 10 to 50 nM.
For `COCCn1nc(OC)c2cc(Nc3nc(N[C@@H](CN)CC(C)C)c(F)cc3C(N)=O)ccc21` [Example 2-124, (R)-6-((1-amino-4-methylpentan-2-yl)amino)-5-fluoro-2-((3-methoxy-1-(2-methoxyethyl)-1H-indazol-5-yl)amino)nicotinamide] the same measures were under 1000 nM and under 10 nM.
For `CC(C)C[C@@H](Nc1nc(Nc2cnc3c(c2)c(N(C)C)nn3C)c(C(N)=O)cc1F)[C@H](C)N` [Example 2-292, 6-(((2S,3R)-2-amino-5-methylhexan-3-yl)amino)-2-((3-(dimethylamino)-1-methyl-1H-pyrazolo[3,4-b]pyridin-5-yl)amino)-5-fluoronicotinamide] the same measures were 1000 to 3000 nM and under 10 nM.
`Cc1ncc(Nc2nc(N[C@H](c3ccccc3)[C@H](C)N)c(F)cc2C(N)=O)cc1-n1nccn1` [Example 2-313, 6-(((1R,2S)-2-amino-1-phenylpropyl)amino)-5-fluoro-2-((6-methyl-5-(2H-1,2,3-triazol-2-yl)pyridin-3-yl)amino)nicotinamide]: the IC50 in assay [2] was 3000 to 6000 nM; in assay [3], under 10 nM.
On the same counts, the results for `C[C@H](N)[C@H](Nc1nc(Nc2ccc3ncccc3c2)c(C(N)=O)cc1F)c1ccccc1` [Example 2-312, 6-(((1R,2S)-2-amino-1-phenylpropyl)amino)-5-fluoro-2-(quinolin-6-ylamino)nicotinamide] are under 1000 nM and under 10 nM.
For `COc1ncc(Nc2nc(N[C@H](C3CC3)[C@H](C)N)c(F)cc2C(N)=O)cc1-n1nccn1` [Example 2-113, 6-(((1R,2S)-2-amino-1-cyclopropylpropyl)amino)-5-fluoro-2-((6-methoxy-5-(2H-1,2,3-triazol-2-yl)pyridin-3-yl)amino)nicotinamide] the same measures were 1000 to 3000 nM and 10 to 50 nM.
For the compound `CCCC[C@@H](Nc1nc(Nc2cncc3c2cnn3CC(F)F)c(C(N)=O)cc1F)[C@H](C)N` [Example 2-399, 6-(((2S,3R)-2-aminoheptan-3-yl)amino)-2-((1-(2,2-difluoroethyl)-1H-pyrazolo[3,4-c]pyridin-4-yl)amino)-5-fluoronicotinamide], the IC50 is 1000 to 3000 nM in assay [2] and under 10 nM in assay [3].
On the same counts, the results for `CCn1nc(OC)c2cc(Nc3nc(N[C@H](CC4CC4)[C@H](C)N)c(F)cc3C(N)=O)ccc21` [Example 2-50, 6-(((2R,3S)-3-amino-1-cyclopropylbutan-2-yl)amino)-2-((1-ethyl-3-methoxy-1H-indazol-5-yl)amino)-5-fluoronicotinamide] are under 1000 nM and under 10 nM.
For `NC(=O)c1cc(F)c(N[C@@H]2CCOC[C@@H]2N)nc1Nc1ccnc(N2CCOCC2)c1F` [Example 2-231, 6-(((3R,4R)-3-aminotetrahydro-2H-pyran-4-yl)amino)-5-fluoro-2-((3-fluoro-2-morpholinopyridin-4-yl)amino)nicotinamide] the same measures were 1000 to 3000 nM and 10 to 50 nM.
For `CN(C)c1c2cc(Nc3nc(N[C@@H]4CCCC[C@@H]4N)c(F)cc3C(N)=O)ccc2nn1C` [Example 2-13, 6-(((1R,2S)-2-aminocyclohexyl)amino)-2-((3-(dimethylamino)-2-methyl-2H-indazol-5-yl)amino)-5-fluoronicotinamide] the same measures were under 1000 nM and under 10 nM.
Regarding `CCC[C@@H](Nc1nc(Nc2cccc3c2cnn3CCOC)c(C(N)=O)cc1F)[C@H](C)N` [Example 2-305, 6-(((2S,3R)-2-aminohexan-3-yl)amino)-5-fluoro-2-((1-(2-methoxyethyl)-1H-indazol-4-yl)amino)nicotinamide], the figures for the IC50 in assay [2] and in assay [3] were 1000 to 3000 nM and under 10 nM, respectively.
On the same counts, the results for `NC(=O)c1cc(F)c(N[C@@H]2CCOC[C@@H]2N)nc1Nc1cnc(N2CCOCC2)c(F)c1` [Example 2-217, 6-(((3R,4R)-3-aminotetrahydro-2H-pyran-4-yl)amino)-5-fluoro-2-((5-fluoro-6-morpholinopyridin-3-yl)amino)nicotinamide] are 1000 to 3000 nM and 50 to 100 nM.
In the case of `COc1ccc([C@@H](Nc2nc(Nc3cnc(C)c(-n4nccn4)c3)c(C(N)=O)cc2F)[C@H](C)N)cc1` [Example 2-338, 6-(((1R,2S)-2-amino-1-(4-methoxyphenyl)propyl)amino)-5-fluoro-2-((6-methyl-5-(2H-1,2,3-triazol-2-yl)pyridin-3-yl)amino)nicotinamide], the IC50 in assay [2] was under 1000 nM; in assay [3] it was 10 to 50 nM.
In the case of `CCOC[C@@H](Nc1nc(Nc2cncc3c2cnn3CC)c(C(N)=O)cc1F)[C@H](C)N` [Example 2-324, 6-(((2S,3S)-3-amino-1-ethoxybutan-2-yl)amino)-2-((1-ethyl-1H-pyrazolo[3,4-c]pyridin-4-yl)amino)-5-fluoronicotinamide], the values for the IC50 in assay [2] and in assay [3] were under 1000 nM and 10 to 50 nM, respectively.
For `CC[C@H](N)[C@@H](CC)Nc1nc(Nc2ccc3c(c2)c(OC)nn3C)c(C(N)=O)cc1F` [Example 2-85, 6-(((3R,4S)-4-aminohexan-3-yl)amino)-5-fluoro-2-((3-methoxy-1-methyl-1H-indazol-5-yl)amino)nicotinamide] the same measures were under 1000 nM and 10 to 50 nM.
Turning to `CC(C)C[C@@H](Nc1nc(Nc2cc(N3CCOCC3)ncc2F)c(C(N)=O)cc1F)[C@H](C)N` [Example 2-236, 6-(((2S,3R)-2-amino-5-methylhexan-3-yl)amino)-5-fluoro-2-((5-fluoro-2-morpholinopyridin-4-yl)amino)nicotinamide], the IC50 fell in the range of 1000 to 3000 nM in assay [2] and 10 to 50 nM in assay [3].
On the same counts, the results for `NC(=O)c1cc(F)c(N[C@@H]2CCCC[C@@H]2N)nc1Nc1cncc2c1cnn2CC(F)F` [Example 2-393, 6-(((1R,2S)-2-aminocyclohexyl)amino)-2-((1-(2,2-difluoroethyl)-1H-pyrazolo[3,4-c]pyridin-4-yl)amino)-5-fluoronicotinamide] are 1000 to 3000 nM and under 10 nM.
